Three compounds from paper PMC10740580, “Benzothiazole-Phthalimide Hybrids as Anti-Breast Cancer and Antimicrobial Agents” (Antibiotics, 2023) can be followed below.

One experiment concerns Candida albicans 10231. The experiment in a line: Antifungal microdilution, C. albicans ATCC 10231. The format is cell-based. Conditions: microdilution CLSI M27-A3, 48 h, 37 °C. How it is done:
(§1) In accordance with CLSI guidelines, compounds 3a–h were tested against a variety of fungal strains (Candida albicans 10231, Candida albicans 90028, Candida glabrata 15126, and Candida parapsilosis 22019) belonging to the ATCC collection. Amphotericin B was utilized as a reference drug. A similar trend of results, or even better than that obtained against bacteria, was assessed against fungal strains. […] Also, in this case, compound 3h emerged as the best of the series, with MICs of 16 μg/mL against Candida glabrata and Candida parapsilosis strains and 32 μg/mL against Candida albicans strains.
(§2) A microdilution technique described by the Clinical and Laboratory Standards Institute (CLSI, M27-A3) was used to assess the antifungal activity. The following fungal strains, belonging to the ATCC collection and available as freeze-dried discs, were used: C. albicans ATCC 10231, C. albicans ATCC 90028, C. glabrata ATCC 15126, and C. parapsilosis ATCC 22019. Stock solutions were prepared and preserved with purity as previously described for the antibacterial studies. Each yeast strain’s pre-cultures were made in Sabouraud broth (SAB) and allowed to grow until they stopped at 37 °C. By using a spectrophotometric technique (530 nm, range 0.12–0.15), the turbidity of the yeast stock suspension was calibrated to 0.5 McFarland Standard. Next, the standardized suspension was diluted first at 1:50 with SAB and then at 1:20 in the same medium to have […]. A total of 100 µL of inoculum was seeded into each well. As a control for growth, several wells containing only inoculated broth were prepared. The plates were incubated for 48 h at 37 °C, and the MIC values were calculated as the final well with no fungal growth. […] MIC values were observed based on the absence of fungal growth in the final well. The MICs were calculated by conducting the antifungal test three times in duplicate. As a control, amphotericin B was used.
On the technique in general: Broth dilution looks for growth in wells or tubes with falling amounts of substance.

The subject of the next experiment is Candida glabrata 15126. The experiment in a line: Antifungal microdilution, C. glabrata ATCC 15126. The format is cell-based. Conditions: Nakaseomyces glabratus, microdilution CLSI M27-A3, 48 h, 37 °C, read-out: MIC C.g. 15126. How it is done: as §1, §2
Another experiment deals with Candida albicans 90028. The experiment in a line: Antifungal microdilution, C. albicans ATCC 90028. The format is cell-based. Conditions: microdilution CLSI M27-A3, 48 h, 37 °C. The protocol: as §1, §2
Experiment [1] concerns Candida parapsilosis 22019. The experiment in a line: Antifungal microdilution, C. parapsilosis ATCC 22019. Conditions: microdilution CLSI M27-A3, 48 h, 37 °C, read-out: MIC C.p. 22019. The class given is cell-based. How it is done: as §1, §2
A further experiment concerns Escherichia coli 25922. The experiment in a line: Broth microdilution, E. coli ATCC 25922. The format is cell-based. As to conditions: 24 h, 37 °C. An excerpt: (§3) Compounds 3a–h were examined in accordance with the Clinical Laboratory Standards Institute (CLSI) recommendations, by means of the broth microdilution method, against gram-positive bacteria (Staphylococcus aureus 25923, Staphylococcus aureus 29213, Staphylococcus aureus 43300, Enterococcus faecalis 29212) and gram-negative bacteria (Escherichia coli 25922, Klebsiella pneumoniae 13883, Pseudomonas aeruginosa 27853) belonging to the ATCC collection, using levofloxacin as a reference drug. Table 3 lists the results, expressed as MIC (µg/mL). […] The lack of activity observed for compound 3d could be conceivably due to its poor solubility in the culture medium containing the inoculum.
(§4) Following the recommendations of the CLSI (Clinical and Laboratory Standards Institute, 2012), the broth microdilution method was used to determine the in vitro minimum inhibitory concentrations (MICs, µg/mL).. The concentration of the investigated compounds was set to its highest value to create stock solutions. Then, the stock solutions were diluted 1:10 with Cation-Adjusted Mueller Hinton Broth (Oxoid, Milan, Italy). After that, a series of concentrations from 512 µg/mL to […] were obtained in the wells by performing two-fold serial dilutions in the appropriate test medium. The diluent used to create the stock solution was 100% DMSO. We used the following bacterial strains from the ATCC collection that were available as freeze-dried discs: gram-positive strains such as S. aureus ATCC 25923, 29213, and 43300, and E. faecalis ATCC 29212, and gram-negative ones such as E. coli ATCC 25922, K. pneuomoniae ATCC 13883, and P. aeruginosa ATCC 27853. To preserve the purity of cultures and to allow their reproducibility, cryovials of all microbial strains were set up in the medium and stored at −80 °C. Mueller Hinton Broth (MHB) was used to prepare pre-cultures of each bacterial strain, which were then incubated for 3–5 h at 37 °C. In accordance with CLSI procedure M7-A9, the turbidity of the bacterial cell suspension was calibrated to 0.5 McFarland Standard using a spectrophotometric approach (OD625 nm 0.08–0.10). The standardized suspension was then further diluted (1:100) with MHB to reach 1–2 × 10^6 CFU/mL. A 200 µL aliquot of the final inoculum was inserted into each well. As a control for growth, several wells containing only inoculated broth were prepared. The plates were incubated at 37 °C for 24 h, and the MIC values were calculated as the lowest concentration of compounds at which there was no optically detectable bacteria growth. Each experiment was carried out in duplicate and repeated twice to determine the MICs. Levofloxacin served as the study’s standard reference antibiotic. Additionally, the antibacterial activity of DMSO alone (used as a diluent for the investigated compounds) was examined; therefore, volumes of this solvent with a concentration of less than 5% were utilized throughout the experimentation.

Experiment [2] relates to Staphylococcus aureus 25923. The experiment in a line: Broth microdilution, S. aureus ATCC 25923. As to conditions: Staphylococcus aureus, 25923, 24 h, 37 °C. The class given is cell-based.
Description: as §3, §4

The subject of experiment [3] is Enterococcus faecalis 29212. The experiment in a line: Broth microdilution, E. faecalis ATCC 29212. The class given is cell-based. As to conditions: 24 h, 37 °C, read-out: MIC E.f. 29212.
Description: as §3, §4

For experiment [4], the system named is Staphylococcus aureus 29213. The experiment in a line: Broth microdilution, S. aureus ATCC 29213. The format is cell-based. As to conditions: 24 h, 37 °C.
Description: as §3, §4

In experiment [5] the test system is Klebsiella pneumoniae 13883. The experiment in a line: Broth microdilution, K. pneumoniae ATCC 13883. The class given is cell-based. As to conditions: 24 h, 37 °C, read-out: MIC K.p. 13883.
Description: as §3, §4

Experiment [6] concerns Acinetobacter baumanii 19606. The experiment in a line: Broth microdilution, A. baumanii 19606. The format is cell-based. As to conditions: Acinetobacter baumannii, 24 h, 37 °C, read-out: MIC A.b. 19606.
Experiment [7] concerns Staphylococcus aureus 43300. The experiment in a line: Broth microdilution, S. aureus ATCC 43300. The class given is cell-based. Conditions: 24 h, 37 °C, methicillin-resistant.
Description: as §3, §4

For experiment [8], the system named is Pseudomonas aeruginosa 27853. The experiment in a line: Broth microdilution, P. aeruginosa ATCC 27853. The format is cell-based. As to conditions: 24 h, 37 °C.
Description: as §3, §4

Experiment [9] concerns MDA-MB-231 cells. The experiment in a line: MTT cell viability assay, MDA-MB-231. The format is cell-based, human. As to conditions: Homo sapiens, MDA-MB-231, 72 h exposure, mean ± SD. The protocol:
(§5) The anticancer activity of the studied compounds (3a–h) was explored with regards to two human breast cancer cell lines, namely the estrogen receptor positive (ER+) MCF-7 cells and the triple negative MDA-MB-231 cells (ER-, PR-, and HER-2/Neu-). Cells were continuously exposed to the test substances for 72 h, after which their viability was assessed by means of the MTT assay. Table 2 lists the determined IC50 values for the investigated substances and the reference drug, thalidomide. […] Additionally, the same test for all the compounds has been performed on nonmalignant breast epithelial cells (MCF-10A) to ascertain their potential cytotoxicity.
(§6) The four cell lines used in this work (MCF-7, MDA-MB-231, MCF-10A, and 3T3-L1) were obtained from the American Type Culture Collection (ATCC, Manassas, VA, USA). All cell lines were maintained at 37 °C in a humidified atmosphere of 95% air and 5% CO2 and periodically screened for contamination. MCF-7, human breast cancer cells estrogen receptor (ER)-positive, and human breast cancer triple negative MDA-MB231 were grown in DMEM-F12 medium containing 2 mmol/L L-glutamine, 1 mg/mL penicillin–streptomycin, and 5% newborn calf serum (NCS) or 5% fetal bovine serum (FBS), respectively. MCF-10A human mammary epithelial cells were cultured in DMEM/F12 medium, supplemented with 5% horse serum (HS) (Eurobio, Les Ullis, Cedex, France), 100 U/mL penicillin/streptomycin, […], 20 ng/mL hEGF (human epidermal growth factor), […], and […] (Sigma-Aldrich, Milano, Italy). BALB/3T3 murine fibroblast cells were cultured in DMEM high glucose supplemented with 10% bovine calf serum (BCS), 1% L-glutamine, and 100 U/mL penicillin/streptomycin.
(§7) Cell viability was evaluated by means of the 3-(4,5-dimethylthiazol-2-y1)-2,5-diphenyltetra zolium bromide (MTT, Sigma-Aldrich, Milan, Italy) assay. On 48-well plates, cells were seeded, and they were cultured in complete medium. Before being treated, cells were starved in serum-free medium for 24 h to allow cell cycle synchronization. Subsequently, cells were exposed to increasing doses of each compound for 72 h in phenol-red-free media supplemented with 1% serum before fresh MTT was added to each well (final concentration: 0.5 mg/mL). Cells were lysed with DMSO after 2 h of incubation at 37 °C, and optical density at 570 nm was then determined with a microplate reader. Using GraphPad Prism 9 software (GraphPad Inc., San Diego, CA, USA), the mean absorbance for each sample was expressed as a percentage over the control and plotted vs. drug concentrations to establish the IC50 values. The given standard deviations (SDs) are indicative of three separate tests carried out in triplicate.
(In general: Tetrazolium assays rely on reduction of a dye to a coloured formazan, in cell work by metabolically active cells.)

For the next experiment, the system named is MCF-7 cells. The experiment in a line: MTT cell viability assay, MCF-7. As to conditions: Homo sapiens, MCF7, 72 h exposure, mean ± SD. The class given is cell-based, human. The protocol: as §5, §6, §7
Experiment [10] has as its system MDA-MB-231 cells. The experiment in a line: TUNEL assay (DNA damage). The class given is cell-based, human. Conditions: 50 μM, 24 h. The protocol: To further assess the effect of 3h treatment in MDA-MB-231, the terminal deoxynucleotidyl transferase dUTP nick-end labeling (TUNEL) assay was used. Thus, 3h or Thalidomide, as reference drug, were administered to the cells, for 24 h, at 25 and 50 μM concentrations, respectively, or with only the vehicle (DMSO), as negative control and then processed as outlined in the experimental section. […] Nuclei were counterstained with blue DAPI (Figure 2, panels A), and merge channels were also shown (Figure 2, panels C), where it is evident the perfect superposition of green and blue signals. […] Images taken from bright fields were also included (Figure 2, panels D).
DNA damage and cell death were analyzed by means of the TUNEL assay as indicated by the manufacturer’s protocols (CF™488A TUNEL Assay Apoptosis Detection Kit, Biotium, Hayward, CA, USA), with few changes, as in [42]. DAPI staining (0.2 μg/mL, Sigma Aldrich, Milan, Italy) was adopted for cell nuclei. Observations were made at 20× magnification using a fluorescence microscope (Leica DM 6000, Leica Microsystem Srl, Buccinasco, Italy). LAS-X software (Version: 3.5.7.23225; Leica Microsystem Srl, Buccinasco, Italy) was employed for the acquisition and processing of the images. Images are representative of two separate experiments from which different fields were acquired.
Figure 2 TUNEL assay. […]

The next experiment relates to MCF-10A cells. The experiment in a line: MTT cell viability assay, nonmalignant MCF-10A. The format is cell-based. Conditions: Homo sapiens, 72 h exposure, nonmalignant breast epithelial cells, mean ± SD, read-out: IC50 MCF10-A. How it is done: as §5, §6, §7

In brackets after ≈: the same amount, converted by molar mass. Bounds are passed on as bounds.

The term MIC denotes the smallest concentration in the dilution series that meets the test's criterion for growth inhibition. `C[C@@H]1[C@H](O)[C@@H](C)/C=C/C=C/C=C/C=C/C=C/C=C/C=C/[C@H](O[C@@H]2O[C@H](C)[C@@H](O)[C@H](N)[C@@H]2O)C[C@@H]2O[C@](O)(C[C@@H](O)C[C@@H](O)[C@H](O)CC[C@@H](O)C[C@@H](O)CC(=O)O[C@H]1C)C[C@H](O)[C@H]2C(=O)O` [amph B, amphotericin B, reference compound]: the MIC in the experiment with Candida albicans 10231 worked out at 2 µg/mL (≈ 2.16 µM); in the experiment on Candida glabrata 15126 it was 2 µg/mL (≈ 2.16 µM); with Candida albicans 90028, 1 µg/mL (≈ 1.08 µM); in experiment [1], 2 µg/mL (≈ 2.16 µM).
Turning to `C[C@H]1COc2c(N3CCN(C)CC3)c(F)cc3c(=O)c(C(=O)O)cn1c23` [levofloxacin, reference compound], the MIC with Escherichia coli 25922 was determined as 0.06 µg/mL (≈ 0.166 µM); in [2], 0.5 µg/mL (≈ 1.38 µM); in experiment [3] it was 2 µg/mL (≈ 5.53 µM); in experiment [4], 0.5 µg/mL (≈ 1.38 µM); in experiment [5] it was 8 µg/mL (≈ 22.1 µM); in experiment [6] it was 8 µg/mL (≈ 22.1 µM). Also, the results for the MIC in [7] and in experiment [8] were 0.5 µg/mL (≈ 1.38 µM) and 4 µg/mL (≈ 11.1 µM), respectively.
As a reminder, the IC50 is the concentration that inhibits the measured activity by half. For the compound `O=C1CCC(N2C(=O)c3ccccc3C2=O)C(=O)N1` (stereo not shown) [thalidomide, reference compound], the IC50 in the experiment with MDA-MB-231 cells [9] is 413 ± 2 µM; with MCF-7 cells, 360 ± 2 µM; with MCF-10A cells it was > 500 µM. Also, in the experiment on MDA-MB-231 cells [10], the “DNA damage (TUNEL, green nuclear fluorescence)” value is “found to damage DNA”.
